These are literature values, as cited in PMC10363405 (Methods in molecular biology (Clifton, N.J.), 2022).

Structures are written as SMILES.

For this series, the target named is β-tubulin. The experiment in a line: fluorescence enhancement titration with crosslinked microtubules. The format is binding, Bos taurus.

As a reminder, the Kd is the free concentration of one partner at which half of the binding sites on the other are occupied at equilibrium, for simple one-to-one binding. As to `CC(=O)OC1C(=O)C2(C)C(OC(=O)CCNC(=O)c3cc4cc(F)c(O)c(F)c4oc3=O)CC3OCC3(OC(C)=O)C2C(OC(=O)c2ccccc2)C2(O)CC(OC(=O)C(O)C(NC(=O)c3ccccc3)c3ccccc3)C(C)=C1C2(C)C` (stereo not drawn) [PB-β-Ala-Taxol], the equilibrium dissociation constant (Kd) is 63 ± 8 nM.
